Laboratory results from patent publication US11925643B2, “Toll-like receptor 4 (TLR4) inhibitors and use thereof” (MOR RESEARCH APPLICATIONS LTD., priority 2018, dated 2024).
Residues, ends and D or L forms follow the SMILES beside them.

Key:
[1] = system: TLR4 mRNA; assay: TLR4 mRNA level by RT-qPCR in hypoxic cardiomyocytes; type: cell-based; conditions: hypoxic conditions
Protocol: Real-time RT-PCR experiments were performed in duplicates on an ABI 7900 instrument (Applied Biosystems™) using Taqman™ Master Mix (Applied Biosystems™). The average threshold cycles (Ct) of the duplicates were used to calculate the relative expression levels of the following genes: TLR4 (Applied Biosystems™ assay primer ID: Mm00569848_m1 Tlr4), TLR2 (assay primer ID: Mm01769726_m1 Tlr2), TNF-α (assay primer ID: Mm00443260_g1 Tnf) and IL-1β (assay primer ID: Mm00434228_m1 II1b) in vitro and in vivo following hypoxia or ischemia, respectively. The reference gene was TBP and the primer used was derived from mouse TATA-box binding protein (Applied Biosystems™ assay primer ID: Mm00446973_m1 Tbp). Amounts of TLR2, TLR4, TNF-α and IL-1β mRNAs in each sample were calculated relative to TBP mRNA, based on the corresponding Cts, as Relative Quantity (RQ) values, and normalized taking as 1 a randomly selected sample of the control group (TBP mRNA). Calculation were performed using the Applied Biosystems Analysis™ software (StepOnePlus V2.2.2). All mRNA scores are presented in arbitrary units.
Next, peptidomimetics of SEQ ID NOs:1 and 2 were tested for their ability to affect the expression of TLR4. The level of TLR4 mRNA was measured by real-time reverse transcriptase polymerase chain reaction (RT-qPCR) method as described in Materials and Methods. The possible effect of both compounds on expression levels of TLR2 mRNA was used as a negative control.

[2] = system: IκB; assay: IκB protein level by Western blot in hypoxic cardiomyocytes; type: cell-based
Protocol: Frozen tissue/cell cultures of liver or heart were pulverized under liquid nitrogen and placed in a homogenization buffer ([…] phosphate buffer, […] sucrose, […] EDTA, […] phenylmethylsulfonyl fluoride (PMSF), and 0.1% vol/vol tergitol, pH 7.5). Myocytes from cell cultures were homogenized in lysis buffer.
Homogenates were centrifuged at 12K rpm for 10 minutes at 4° C., the supernatant was isolated, and protein levels were visualized by immunoblotting with antibodies. Briefly, proteins (60 μg/sample) were separated using SDS-PAGE gel (12%-15%) under denaturing conditions and electro-transferred (blotted) onto nitrocellulose (Bio-Rad) for 1 hour at 100 V. Membranes were blocked with 5% nonfat milk in Tris-buffered saline with 0.1% Tween® 20 (TBST) for 1 hour at room temperature. Primary antibodies were used at a 1:200-1:1000 concentration in TBST with 5% nonfat milk overnight at 4° C. Immunodetection of β-actin/GPDH was performed as an internal control. Dye 800/680 secondary antibodies were added at a concentration of 1:15000 for 1 hour at room temperature (LI-COR® Biosciences, NE, USA). Detection was carried out with LI-CORE® Odyssey® imaging system. Quantification of signals was carried out with the Odyssey® program.
The mechanism of action of peptidomimetics of SEQ ID NOs:1, 2 and 12 was studied in vitro in cardiomyocytes, under hypoxic conditions, by determining the expression level of the IκB gene, which is regulated by activation of TLR4, and by measuring the TLR4 mRNA levels. In addition, TLR4 expression level was measured in macrophage (derived from monocytes) treated with LPS.
IκB protein level was determined by Western blot as described in Material and Methods. The amount of IκB was normalized via-a-vis the amount of β-actin serving as the loading control (the β-actin is coded by a housekeeping gene and its level is expected to remain constant under any experimental conditions).

[3] = system: primary cardiomyocytes; assay: CK and LDH release by primary cardiomyocytes under LPS treatment (sepsis like); type: cell-based, Rat; conditions: LPS treatment; 20 μM
Protocol: Rat hearts (1-2 days old) were removed under sterile conditions and washed three times in phosphate-buffered saline (PBS) to remove excess blood cells. The hearts were minced and then gently agitated in RBD (a solution of proteolytic enzymes (Biological Institute, Ness-Ziona, Israel) prepared from fig tree extract, and diluted 1:100 in Ca^2+- and Mg^2+-free PBS) for a few cycles of 10 min each. Dulbecco's modified Eagle's medium (Biological Industries, Kibbutz Beit Haemek, Israel) containing 10% horse serum was added to supernatant suspensions containing the dissociated cells. The mixture was centrifuged at 1400 rpm for 4 min. The supernatant phase was discarded, and the cells were re-suspended. The cell suspension was diluted to 1.0×10^6 cells/ml, unless stated otherwise, and 1.5 ml of the suspension was placed in 35-mm plastic culture dishes collagen- or gelatin-coated, or on coated cover glasses. The cultures were incubated in a humidified atmosphere of 5% CO2 and 95% air at 37° C.
Primary cardiomyocytes which were obtained by method described above, were treated with exemplary decoy peptides described herein. After 30 minutes of incubation, sepsis like (LPS treatment for 6 hours), or myocardial infarction (MI) like (hypoxia for 3 hours) conditions were imposed to measure the release of CK and LDH to the medium and determine the potential cardioprotective effect of the tested decoy peptides. Cytotoxicity and level of cell damage were assessed by spectrophotometric measurement of lactate dehydrogenase (LDH) and creatine kinase (CK) activities (at 30° C.). Results are presented as CK and LDH release in arbitrary units (a.u.)
Activity of LDH and CK was determined in the cell-culture medium (25 μl) transferred into 96-well plates, using commercial L-LDH/CK kits (such as those manufactured, e.g., by Sigma-Aldrich, BioVision™ or Thermo Fisher Scientific®).
Primary cardiomyocytes were treated with peptides and peptidomimetics of SEQ ID NOs:1-7 provided at concentrations ranging from 1 μM to 20 μM. Following 30 minutes of incubation, sepsis like (LPS treatment for 6 hours) or MI like (hypoxia for 3 hours) conditions were induced to determine the potential cardioprotective effect of the tested compounds. Creatine kinase (CK) and lactate dehydrogenase (LDH) activity were assayed to determine the level of cellular damage and cell protection effect. The experimental procedure is described in Materials and Methods above. Results are presented as CK and LDH release in arbitrary units (a.u.).

Row | Structure (SMILES) | TLR4 mRNA expression level [1] | IκB level ([2]; normalized to β-actin) | CK release [3] | LDH release [3] | inhibition of TLR4 mRNA production [1] [fold] | inhibition of decrease of IκB protein level ([2]; 20 μM, compared to hypoxic cells not treated)
1 | CC[C@H](C)[C@H](NC(C)=O)C(=O)N[C@H](C(=O)N[C@@H](Cc1ccccc1)C(=O)N[C@@H](C)C(N)=O)C(C)C [SEQ ID NO:1, (2S,3S)-2-acetamido-N-((S)-1-(((S)-1-(((S)-1-amino-1-oxopropan-2-yl)amino)-1-oxo-3-phenylpropan-2-yl)amino)-3-methyl-1-oxobutan-2-yl)-3-methylpentanamide] (Ac-IVFA-NH2) | significantly decreased | high levels | subnormal levels | subnormal levels |  | 
2 | CCCCCCCCNc1nc(=O)n(Cc2ccccc2)cc1C [PM6, 1-benzyl-5-methyl-4-(octylamino)pyrimidin-2(1H)-one] |  |  | no significant effect | no significant effect | ~3.3 | roughly 7 fold
